The test system of this assay is Mycobacterium tuberculosis variant bovis. The assay can be described thus: Anti-mycobacterial activity against Mycobacterium bovis assessed as growth inhibition at 16.13 uM relative to control. It counts as functional.

Consider `CC(C)C[C@H](NC(=O)[C@H](CCCNC(=N)N)NC(=O)CNC(=O)[C@H](CC(C)C)NC(=O)[C@@H](NC(=O)[C@@H](CCCCN)NC(=O)[C@@H](NC(=O)[C@H](CC(C)C)NC(=O)[C@H](CCCNC(=N)N)NC(=O)CNC(=O)[C@H](CC(C)C)NC(=O)[C@@H](NC(=O)[C@@H](N)CCCCN)C(C)C)C(C)C)C(C)C)C(=O)N[C@H](C(N)=O)C(C)C`, for which the inhibition at 16.13 µM stood at 95%.

On to `CC(C)C[C@H](NC(=O)[C@H](CCCNC(=N)N)NC(=O)CNC(=O)[C@H](CC(C)C)NC(=O)[C@@H](NC(=O)[C@H](CCCCN)NC(=O)[C@@H](NC(=O)[C@H](CC(C)C)NC(=O)[C@H](CCCNC(=N)N)NC(=O)CNC(=O)[C@H](CC(C)C)NC(=O)[C@@H](NC(=O)[C@@H](N)CCCCN)C(C)C)C(C)C)C(C)C)C(=O)N[C@H](C(N)=O)C(C)C`, for which the inhibition at 16.13 µM came to 80%.

As usually defined, the inhibition is the percentage by which the read-out fell short of the control.

For the origin of these results see ChEMBL document CHEMBL5030557, “Tandem Repeat of a Short Human Chemerin-Derived Peptide and Its Nontoxic d-Lysine-Containing Enantiomer Display Broad-Spectrum Antimicrobial and Antitubercular Activities” (J Med Chem, 2021).
